In the oligonucleotide strings, read from the 5' end, every base follows the letter of its sugar. An asterisk marks phosphorothioate; unmarked linkages are phosphodiester. Other units and linkages are bracketed, terminal groups are in braces. A string of capitals states the bases alone. e = 2'-O-(2-methoxyethyl) (MOE); [5mC] = 5-methylcytosine; d = 2'-deoxy (DNA)
tested on: human apolipoprotein B mRNA; experiment: Inhibition of human apolipoprotein B mRNA levels in HepG2 cells, quantitative real-time PCR; format: cell-based; details: HepG2 cells treated with 150 nM of compound; averages from two experiments; quantitative real-time PCR
Procedure, shortened: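 HepG2 cells at 80% confluency were transfected with antisense oligonucleotide using 3.75 μg/mL Lipofectin in Opti-MEM for 4-7 h and harvested 16-24 h after treatment. Apolipoprotein B mRNA was measured by real-time RT-PCR and normalized to GAPDH or RiboGreen total RNA. Percent inhibition came from untreated-control standard curves.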

| Substance | % INHIB (inhibition of human apolipoprotein B mRNA levels) |
| --- | --- |
| 301026 (eA*eT*eA*eT*eA*dG*dG*d[5mC]*dA*dG*dT*dT*dT*dG*dA*eA*eT*eT*eT*eT; antisense) [compound 301026] | 57% |
| 281598 (eT*e[5mC]*eG*e[5mC]*eA*dG*d[5mC]*dT*dG*d[5mC]*dT*dG*dT*dG*d[5mC]*eT*eG*eA*eG*eG; antisense) [compound 281598] | 70% |
| 271027 (e[5mC]*e[5mC]*e[5mC]*eA*eT*dG*d[5mC]*dT*d[5mC]*d[5mC]*dG*dT*dT*d[5mC]*dT*e[5mC]*eA*eG*eG*eT; antisense) [compound 271027] | 26% |
| 281606 (antisense eT*eG*e[5mC]*eA*eA*d[5mC]*dT*dG*dT*dA*dA*dT*d[5mC]*d[5mC]*dA*eG*e[5mC]*eT*e[5mC]*e[5mC]) [compound 281606] | 86% |

same assay, conditions: HepG2 cells; 10 nM; 24 hour (Table 41)

| Substance | % Change in apolipoprotein B mRNA expression |
| --- | --- |
| 332781 (antisense CTCAGTCTGCTTCGCA; sugars from the 5' end e3 d10 e3, all phosphorothioate, methylation of C not given here) [compound 332781] | −9% |

same assay, conditions: HepG2 cells; 50 nM; 24 hour (Table 41)

| Substance | % Change in apolipoprotein B mRNA expression |
| --- | --- |
| 332781 (antisense CTCAGTCTGCTTCGCA; sugars from the 5' end e3 d10 e3, all phosphorothioate, methylation of C not given here) [compound 332781] | −35% |

same assay, conditions: HepG2 cells; 150 nM; 24 hour (Table 41)

| Substance | % Change in apolipoprotein B mRNA expression |
| --- | --- |
| 332781 (antisense CTCAGTCTGCTTCGCA; sugars from the 5' end e3 d10 e3, all phosphorothioate, methylation of C not given here) [compound 332781] | −60% |

same assay, conditions: HepG2 cells; human apolipoprotein B mRNA; oligonucleotides targeting genomic sequence SEQ ID NO 334; averages from two experiments

| Substance | % INHIB |
| --- | --- |
| 301199 (antisense eT*e[5mC]*eT*e[5mC]*e[5mC]*dA*dG*dA*dT*d[5mC]*d[5mC]*dT*dA*dA*d[5mC]*eA*eT*eA*eA*eA) [compound 301199] | 19% |
| 301192 (antisense eT*eG*eA*eG*eG*dA*dT*dG*dT*dA*dA*dT*dT*dA*dG*e[5mC]*eA*e[5mC]*eT*eT) [compound 301192] | 27% |
| 301196 (antisense e[5mC]*e[5mC]*eG*eG*e[5mC]*d[5mC]*dA*dT*d[5mC]*dG*d[5mC]*dT*dG*dA*dA*eA*eT*eG*eA*eA) [compound 301196] | 54% |

same assay, conditions: Table 1; HepG2 cells, 150 nM; averages from two experiments

| Substance | % INHIB |
| --- | --- |
| 147818 (antisense eA*eG*eT*eG*eA*dT*dG*dG*dA*dA*dG*d[5mC]*dT*dG*d[5mC]*eG*eA*eT*eA*e[5mC]) [compound 147818] | 30% |
| 147826 (antisense eT*e[5mC]*eA*eG*eG*dG*dT*dG*dA*dG*d[5mC]*d[5mC]*d[5mC]*dT*dG*eT*eG*eT*eG*eT) [compound 147826] | 80% |
| 147829 (antisense eT*eA*eT*eA*eT*d[5mC]*d[5mC]*d[5mC]*dA*dG*dG*dT*dT*dT*d[5mC]*e[5mC]*e[5mC]*e[5mC]*eG*eG) [compound 147829] | 64% |

same assay, conditions: Table 11 gene walk; HepG2 cells, 50 nM; averages from two experiments

| Substance | % INHIB 50 nm |
| --- | --- |
| 308612 (eG*eG*eT*eT*eA*d[5mC]*d[5mC]*dA*dG*d[5mC]*d[5mC]*dA*d[5mC]*dA*dT*eG*e[5mC]*eA*eG*e[5mC]; antisense) [compound 308612] | 75% |
| 308605 (eG*eA*eA*eT*eG*dT*d[5mC]*dA*dT*dG*dG*dT*dA*dG*d[5mC]*e[5mC]*eT*e[5mC]*eA*eG; antisense) [compound 308605] | 50% |

same assay, conditions: Table 11 gene walk; HepG2 cells, 150 nM; averages from two experiments

| Substance | % INHIB 150 nm |
| --- | --- |
| 308612 (eG*eG*eT*eT*eA*d[5mC]*d[5mC]*dA*dG*d[5mC]*d[5mC]*dA*d[5mC]*dA*dT*eG*e[5mC]*eA*eG*e[5mC]; antisense) [compound 308612] | 90% |
| 308605 (eG*eA*eA*eT*eG*dT*d[5mC]*dA*dT*dG*dG*dT*dA*dG*d[5mC]*e[5mC]*eT*e[5mC]*eA*eG; antisense) [compound 308605] | 81% |

same assay, conditions: Table 13 gene walk; HepG2 cells, 50 nM; averages from two experiments

| Substance | % INHIB 50 nm |
| --- | --- |
| 308627 (eT*e[5mC]*eA*eG*eT*d[5mC]*dT*dG*d[5mC]*dT*dT*d[5mC]*dG*d[5mC]*dG*e[5mC]*e[5mC]*eT*eT*e[5mC]; antisense) [compound 308627] | 67% |

same assay, conditions: Table 13 gene walk; HepG2 cells, 150 nM; averages from two experiments

| Substance | % INHIB 150 nm |
| --- | --- |
| 308627 (eT*e[5mC]*eA*eG*eT*d[5mC]*dT*dG*d[5mC]*dT*dT*d[5mC]*dG*d[5mC]*dG*e[5mC]*e[5mC]*eT*eT*e[5mC]; antisense) [compound 308627] | 89% |

tested on: rabbit apolipoprotein B mRNA; experiment: Inhibition of rabbit apolipoprotein B mRNA levels in primary rabbit hepatocytes, real-time PCR; format: cell-based; parameters: % INHIB of rabbit apolipoprotein B mRNA levels: concentration or dose not given beside the values; details: not given
From the text: Primary rabbit hepatocytes were purchased from Invitro Technologies (Gaithersburg, Md.) and maintained in Dulbecco's modified Eagle's medium (Gibco). When purchased, the cells had been seeded into 96-well plates for use in RT-PCR analysis and were confluent.
In accordance with the present invention, a series of oligonucleotides was designed to target different regions of rabbit apolipoprotein B, using published sequences (GenBank accession number X07480.1, incorporated herein as SEQ ID NO: 808, GenBank accession number M17780.1, incorporated herein as SEQ ID NO: 809, and a sequence was derived using previously described primers (Tanaka, Journ. Biol. Chem., 1993,268, 12713-12718) representing an mRNA of the rabbit apolipoprotein B, incorporated herein as SEQ ID NO: 810). “Target site” indicates the first (5′-most) nucleotide number on the particular target sequence to which the oligonucleotide binds. All compounds in Table 21 are chimeric oligonucleotides (“gapmers”) 20 nucleotides in length, composed of a central “gap” region consisting of ten 2′-deoxynucleotides, which is flanked on both sides (5′ and 3′ directions) by five-nucleotide “wings”. The wings are composed of 2′-methoxyethyl (2′-MOE)nucleotides. The internucleoside (backbone) linkages are phosphorothioate (P═S) throughout the oligonucleotide. All cytidine residues are 5-methylcytidines. The compounds were analyzed for their effect on rabbit apolipoprotein B mRNA levels in primary rabbit hepatocytes by quantitative real-time PCR as described in other examples herein. Primary rabbit hepatocytes were treated with 150 nM of the compounds in Table 21. For rabbit apolipoprotein B the PCR primers were: • forward primer: AAGCACCCCCAATGTCACC (SEQ ID NO: 811) • reverse primer: […] (SEQ ID NO: 812) and the PCR probe was: FAM-[…]-TAMRA (SEQ ID NO: 813) where FAM (PE-Applied Biosystems, Foster City, Calif.) is the fluorescent reporter dye) and TAMRA (PE-Applied Biosystems, Foster City, Calif.) is the quencher dye. Data are averages from two experiments. If present, “N.D.” indicates “no data”.
In accordance with the present invention, a subset of the antisense oligonuclotides in Example 42 was further investigated in dose-response studies. Treatment doses were 10, 50, 150 and 300 nM. ISIS 233160 (SEQ ID NO: 824), ISIS 233166 (SEQ ID NO: 830), ISIS 233172 (SEQ ID NO: 835), ISIS 233175 (SEQ ID NO: 838), and ISIS 233183 (SEQ ID NO: 846) were analyzed for their effect on rabbit apolipoprotein B mRNA levels in primary rabbit hepatocytes by quantitative real-time PCR as described in other examples herein.

| Substance | % INHIB of rabbit apolipoprotein B mRNA levels |
| --- | --- |
| 233164 (antisense e[5mC]*eA*eT*eA*eT*dG*dT*d[5mC]*dT*dG*dA*dA*dG*dT*dT*eG*eA*eG*eA*e[5mC]) [compound 233164] | 8% |
| 233184 (antisense eT*eA*eA*eA*eG*dT*d[5mC]*d[5mC]*dA*dG*d[5mC]*dA*dT*dT*dG*eG*eT*eA*eT*eT) [compound 233184] | 69% |
| 233189 (antisense eG*e[5mC]*e[5mC]*eT*e[5mC]*dA*dA*dT*d[5mC]*dT*dG*dT*dT*dG*dT*eT*eT*e[5mC]*eA*eG) [compound 233189] | 46% |
| 233156 (antisense e[5mC]*eA*e[5mC]*eT*eG*dG*dA*dA*dA*d[5mC]*dT*dT*dG*dT*d[5mC]*eT*e[5mC]*eT*e[5mC]*e[5mC]) [compound 233156] | 23% |
| 233180 (antisense eA*eA*eG*eA*eT*dG*d[5mC]*dA*dG*dT*dA*d[5mC]*dT*dA*d[5mC]*eT*eT*e[5mC]*e[5mC]*eA) [compound 233180] | 13% |
| 233153 (antisense eG*e[5mC]*e[5mC]*eT*eG*dA*dT*dA*d[5mC]*dT*d[5mC]*dA*dG*d[5mC]*dA*e[5mC]*eG*eT*eA*eG) [compound 233153] | 0% |
| 233165 (antisense eG*eT*eA*eG*eA*dT*dA*d[5mC]*dT*d[5mC]*d[5mC]*dA*dT*dT*dT*eT*eG*eG*e[5mC]*e[5mC]) [compound 233165] | 0% |
| 233187 (antisense eT*eG*eA*e[5mC]*eA*dG*dA*dT*dG*dA*dA*dG*dA*dG*dG*eA*eA*eG*eA*eA) [compound 233187] | 66% |
| 233188 (antisense eT*eT*eG*eT*eA*d[5mC]*dT*dG*dT*dA*dG*dT*dG*d[5mC]*dA*eT*e[5mC]*eA*eA*eT) [compound 233188] | 74% |
| 233173 (antisense eT*eT*eG*eT*eG*dT*dT*d[5mC]*d[5mC]*dT*dT*dG*dA*dA*dG*e[5mC]*eG*eG*e[5mC]*e[5mC]) [compound 233173] | 3% |
| 233157 (antisense eA*eG*eT*eA*eG*dT*dT*dA*dG*dT*dT*dT*d[5mC]*dT*d[5mC]*e[5mC]*eT*eT*eG*eG) [compound 233157] | 0% |
| 233179 (antisense eA*eT*eG*eT*eT*dG*d[5mC]*d[5mC]*d[5mC]*dA*dT*dG*dG*d[5mC]*dT*eG*eG*eA*eA*eT) [compound 233179] | 65% |
| 233155 (antisense eA*e[5mC]*e[5mC]*eT*e[5mC]*dA*dG*dT*dG*dA*d[5mC]*dT*dT*dG*dT*eA*eA*eT*e[5mC]*eA) [compound 233155] | 47% |
| 233177 (antisense eG*eT*eA*eG*e[5mC]*dT*dT*dT*d[5mC]*d[5mC]*d[5mC]*dA*dT*d[5mC]*dT*eA*eG*eG*e[5mC]*eT) [compound 233177] | 0% |
| 233181 (antisense eG*e[5mC]*eA*e[5mC]*e[5mC]*d[5mC]*dA*dG*dA*dA*dT*d[5mC]*dA*dT*dG*eG*e[5mC]*e[5mC]*eT*eG) [compound 233181] | 0% |
| 233149 (antisense eT*eG*e[5mC]*eT*eT*dG*dG*dA*dG*dA*dA*dG*dG*dT*dA*eA*eG*eA*eT*e[5mC]) [compound 233149] | 0% |
| 233170 (antisense eT*eT*eG*eA*eT*d[5mC]*dT*dA*dT*dA*dA*dT*dA*d[5mC]*dT*eA*eG*e[5mC]*eT*eA) [compound 233170] | 23% |
| 233190 (antisense eA*e[5mC]*eT*eT*eG*dA*dG*d[5mC]*dG*dT*dG*d[5mC]*d[5mC]*d[5mC]*dT*e[5mC]*eT*eA*eA*eT) [compound 233190] | 69% |

Reference: patent US7803930B2, “Antisense modulation of apolipoprotein B-expression” (Isis Pharmaceuticals, Inc., priority 2002, dated 2010)
